The values below come from PubChem BioAssay AID743134 (The Scripps Research Institute Molecular Screening Center, 2013).

The target in the assay is Acyl-protein thioesterase 1 (Mus musculus) (UniProt P97823). Nature of the assay: in vivo LYPLA1 target engagement in mouse tissues, late-stage follow-up, in vivo study for LYPLA1/LYPLA2 inhibitor project, mouse liver, brain, kidney proteomes, fluorescence gel (AID 743134). The note with it: C57BL6 mice i.p., tissue gel-based ABPP FP-Rh, 4 h.

Structures are written as SMILES. Calls of active or inactive are those of the source.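 How the source made its calls: active means compound cutting LYPLA1 and LYPLA2 activity by half or more in mouse liver, kidney or brain after 5 mg/kg; inactive means the rest.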

Acyl-protein thioesterase 1 (Mus musculus), sequence (P97823 whole entry, looked up): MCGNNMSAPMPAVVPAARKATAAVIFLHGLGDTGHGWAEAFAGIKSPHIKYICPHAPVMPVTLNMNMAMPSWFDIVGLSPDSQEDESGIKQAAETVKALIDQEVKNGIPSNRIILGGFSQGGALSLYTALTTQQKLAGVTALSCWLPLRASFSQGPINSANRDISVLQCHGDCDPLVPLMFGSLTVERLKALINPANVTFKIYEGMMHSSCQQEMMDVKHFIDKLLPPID

Regarding `O=C(ON1C(=O)C2CN(C(=O)N3CCOCC3)CCN2C1=O)N1CCC(CCc2ccc(Cl)cc2)CC1` (stereo not drawn), for the setting “Brain soluble proteome”, the outcome was inactive. Also, the outcome is “active” (Kidney soluble proteome) and “active” (Liver soluble proteome).
